Read-outs that look alike come from different tables or passages of the source.
Experiments:
[1] = Docetaxel dissolution study, USP Apparatus II (Paddle); format: physicochemical; settings: for Docetaxel Dissolution: methanol/water 15/85, 37° C., pH 7
Protocol: At 5, 15, 30, 60, 120 and 225 minutes, a 5 mL aliquot was removed, filtered through a 0.22 μm filter, and analyzed on a UV/VIS spectrophotometer at 232 nm. Absorbance values of the samples were compared to those of standard solutions prepared in dissolution media to determine the amount of material dissolved.

[2] = Particle size analysis (light obscuration and laser diffraction); format: physicochemical
Protocol: Particle size was analyzed by both light obscuration and laser diffraction methods. An Particle Sizing Systems AccuSizer 780 SIS system was used for the light obscuration method and Shimadzu SALD-7101 was used for the laser diffraction method.
The vials were vortexed for approximately 10 seconds and then sonicated in a sonic bath approximately 1 minute.
The vial was vortexed for approximately 10 seconds and then sonicated in a sonic bath for approximately 2 minutes. This suspension was used for laser diffraction analysis. Unused suspension was poured into a 125 mL particle-free plastic bottle, which was then filled to approximately 100 mL with filtered dispersant. The suspension was vortex for approximately 10 seconds and then sonicated in the sonic bath for approximately 2 minutes. This diluted suspension was used for light obscuration analysis.
A background test was first performed prior to analyzing particles on the AccuSizer 780 SIS. A new particle-free plastic bottle was filled with blank suspension solution by pumping from a reservoir, using a peristaltic pump, through a 0.22 μm Millipore filter and into the bottle. A background analysis was run to ensure the particle/mL count was below 100 particles/mL. […] Once the analysis was completed, the background data was removed and any measurement with less than four counts was removed.
To analyze particles on SALD-7101 using a batch cell, the analysis was started by choosing Manual Measurement. The refractive index was set as 1.5 to 1.7. The batch cell was filled with filtered dispersant just past the etched line. The blank measurement was ran. […] The measurements were executed, and the resulting graph with the highest level of confidence was selected; background was automatically accounted for.

[3] = Paclitaxel dissolution study, USP Apparatus II (Paddle); format: physicochemical; settings: methanol/water 50/50 (v/v), 37° C., pH 7, 75 rpm
Protocol: Beads were transferred to a stainless steel mesh container and placed in the dissolution bath containing methanol/water 50/50 (v/v) media at 37° C., pH 7, and a USP Apparatus II (Paddle), operating at 75 rpm. At 10, 20, 30, 60, and 90 minutes, a 5 mL aliquot was removed, filtered through a 0.22 μm filter and analyzed on a U(V/V)is spectrophotometer at 227 nm. Absorbance values of the samples were compared to those of standard solutions prepared in dissolution media to determine the amount of material dissolved.

[4] = BET surface area analysis; format: physicochemical
Protocol: As used herein, the “specific surface area” is the total surface area of the taxane particle per unit of taxane mass as measured by the Brunauer-Emmett-Teller (“BET”) isotherm (i.e.: the BET SSA). As will be understood by those of skill in the art, the “taxane particles” can include both agglomerated taxane particles and non-agglomerated taxane particles; since the SSA is determined on a per gram basis it takes into account both agglomerated and non-agglomerated taxane particles in the composition. The BET specific surface area test procedure is a compendial method included in both the United States Pharmaceopeia and the European Pharmaceopeia.
A known mass between 200 and 300 mg of the analyte was added to a 30 mL sample tube. […] The automated test was then carried out using the BETWIN® software package and the surface area of each sample was subsequently calculated.

[5] = system: MX-1 human breast cancer xenografts; settings: for animal deaths / animals euthanized: 30 mg/kg IV qwk×3, 10 mice; for inhibition of growth of the xenografts: 30 mg/kg IV qwk×3 vs vehicle
Text: Tumor model: A total of 88 female NCr-nu/nu mice were implanted with MX-1 breast tumor fragments from an in vivo passage subcutaneously (SC) on the right flank. The day of tumor cell implantation was designated as Day 0.
The NanoPac™ and NanoDoce™ are suspensions. Prior to filling each syringe and between the injections of each animal, the test article was gently swirled/inverted. Animals were observed once daily for mortality and moribundity. Adverse signs were documented by exception only. Body weights were collected twice weekly beginning on SD. Tumor measurements were taken twice weekly beginning on SD, using a digital caliper. Length and width were measured for each tumor. Tumor volume was determined using the formula for an ellipsoid sphere: Length×Width 2/2=Volume (mm^3). This formula was also used to calculate tumor weight, assuming unity density (1 mm^3=1 mg). Limit of tumor detection is 32 mg (4×4 mm). The experiment lasted for 63 days from the day of tumor implant. Animals whose weight decreased more than 30% from the weight on the first day of treatment or whose tumor reached 4,000 mg in weight, ulcerated, or sloughed off was euthanized prior to study termination.

[6] = system: MDA-MB-231 human breast cancer xenografts; settings: for complete tumor regressions (animals): 30 mg/kg IV qwk×3; for animal deaths: 30 mg/kg IV qwk×3, 10 mice; for mean tumor weight: 30 mg/kg IV qwk×3, Day 29; for inhibition of growth of the xenografts: 30 mg/kg IV qwk×3, Day 29 vs vehicle; for % difference at nadir of response: 30 mg/kg IV qwk×3, Day 33; for tumor-free animals at the end of the study: 30 mg/kg IV qwk×3, Day 61; for tumor-free animals: IV treated group, Day 49
Text: Study Design: A total of 88 female NCr-nu/nu mice were implanted with MDA-MB-231 breast tumor fragments from an in vivo passage subcutaneously (SC) on the right flank. The day of tumor cell implantation (Aug. 4, 2016) was designated as Day 0.
The NanoPac™ and NanoDoce™ are suspensions. Prior to filling each syringe and between the injections of each animal, the test article was gently swirled/inverted. Intratumoral administration of the test material entailed the use of six needle tracks per tumor (27 G ½ inch needle). One sixth of the dose volume was injected as a slow bolus in each track, with ˜15 seconds pause before removing the needle slowly, and moving to the next injection site spaced over the surface of the tumor. The animals were observed once daily for mortality and moribundity. The mice were weighed and the tumor measurements were taken twice weekly starting on the first day of treatment. Length and width were measured for each tumor. Tumor volume was determined using the formula for an ellipsoid sphere: Length×Width^2/2=Volume(mm^3)
This formula was also used to calculate tumor weight, assuming unity density (1 mm^3=1 mg). Limit of tumor detection was 32 mg (4×4 mm). The experiment lasted for 61 days from the day of tumor implant. Animals whose weight decreased more than 30% from the weight on the first day of treatment or whose tumor reached 4,000 mg in weight, ulcerated, or sloughed off was euthanized prior to study termination.

[7] = system: PC-3 human prostate carcinoma; assay: PC-3 prostate carcinoma xenograft, Study P-PPr-01-2015; format: in vivo, nude mouse; settings: IV 30 mg/kg qwk×3
Protocol: Tumors were measured twice per week. Partial treatment outcome was based on percent tumor growth inhibition (% TGI), defined as the percent difference between the Day 32 median tumor volumes of treated and vehicle-control mice.

[8] = Paclitaxel concentration in JIMT-1 tumor tissue (LC/MS/MS); format: in vivo, CB.17 SCID mice; settings: Group 5: 30 mg/kg, IV, qwk × 3; day 50, 35 days after last dose; individual animals
Protocol: The timing of the analysis for each group relative to the last day of drug administration is as follows: • 21 days after last dose for groups 1, 3 and 4; • 49 days for group 2; and • 35 days for group 5.
Tissue processing was carried out as follows: • 1. Control tumor tissue and tumor tissue samples were weighed and three volumes of water were added to each to yield samples with a dilution factor of 4. • 2. Tumor tissues were homogenized with a homogenizer FastPrep®-24 using a speed of 4.0 m/sec for 100 sec. • 3. 50 μL of control tumor tissue homogenate was added to separate wells of a 96 well plate for STDs, QC samples and blanks. • 4. To the control tumor tissue homogenates, 50 μL of the appropriate solution was added for STDs and QC samples (50 μL of diluent was added for blanks) • 5. For tumor tissue homogenate study samples, 50 μL of each sample was added to separate well of the 96-well plate and 50 μL aliquot of diluent was added to each tissue sample. • 6. To all samples, 200 μL of internal standard (200 ng/mL Warfarin) solution in ACN was added. • 7. The plate was vortexed vigorously for 10 minutes and then centrifuged for 10 minutes at 4000 rpm (Sorvall Legend X1R centrifuge, Thermo Scientific) at 15° C. • 8. After centrifugation, 100 μL aliquots of supernatant were transferred to a new 96-well plate containing 100 μL of water in each well. • 9. […]

[9] = system: JIMT-1 human breast cancer xenografts; assay: JIMT-1 human breast cancer xenograft study; format: in vivo, CB.17 SCID mice; settings: 30 mg/kg iv qwk×3
Protocol: Test articles were as follows:
Adjust volume accordingly for body weight. […] Animals were monitored individually. […] When the endpoint is reached, the animals were euthanized.
Tumor growth inhibition was evaluated on D29 (the last day of dosing for animals receiving 5 admins, G1, 3, 4) at 1000 mm^3 and the study ended on D50 with a revised tumor volume endpoint of 600 mm^3 for overall survival analysis.

SMILES: CC(=O)O[C@@]12CO[C@@H]1C[C@H](O)[C@@]1(C)C(=O)[C@H](O)C3=C(C)[C@@H](OC(=O)[C@H](O)[C@@H](NC(=O)OC(C)(C)C)c4ccccc4)C[C@@](O)([C@@H](OC(=O)c4ccccc4)[C@H]21)C3(C)C [Docetaxel Raw Material, docetaxel]
- Docetaxel Dissolution ([1]; 0 minutes): 0.0%
- Docetaxel Dissolution ([1]; 5 minutes): 3.2%
- Docetaxel Dissolution ([1]; 15 minutes): 6.9%
- Docetaxel Dissolution ([1]; 30 minutes): 11.2%
- Docetaxel Dissolution ([1]; 60 minutes): 16.4%
- Docetaxel Dissolution ([1]; 120 minutes): 22.4%
- Docetaxel Dissolution ([1]; 225 minutes): 26.8%
- Dissolution (30 min) ([1]; methanol/water 15/85 (v/v), 37° C., pH 7, 75 rpm): 11%
- Number Mean [2]: 1.58 um
- Volume Mean [2]: 5.05 um

SMILES: CC(=O)O[C@H]1C(=O)[C@@]2(C)[C@H]([C@H](OC(=O)c3ccccc3)[C@]3(O)C[C@H](OC(=O)[C@H](O)[C@@H](NC(=O)c4ccccc4)c4ccccc4)C(C)=C1C3(C)C)[C@]1(OC(C)=O)CO[C@@H]1C[C@@H]2O [Paclitaxel Raw Material, paclitaxel]
- Dissolution (30 min) [3]: 18%
- Number Mean [2]: 1.16 um
- Surface Area ([4]; BET): 10.4 m^2/g
- BET surface area ([4]; Example 1): 7.25 m^2/g

SMILES: CC(=O)O[C@@]12CO[C@@H]1C[C@H](O)[C@@]1(C)C(=O)[C@H](O)C3=C(C)[C@@H](OC(=O)[C@H](O)[C@@H](NC(=O)OC(C)(C)C)c4ccccc4)C[C@@](O)([C@@H](OC(=O)c4ccccc4)[C@H]21)C3(C)C [docetaxel]
- animal deaths / animals euthanized [5]: two animals euthanized for body weight loss >30%
- mean tumor weight ([5]; 30 mg/kg IV qwk×3, Day 28): 0.9 mg
- animals with completely regressed tumors ([5]; 30 mg/kg IV qwk×3, Day 31): nine
- surviving animals tumor-free at the end of the study ([5]; 30 mg/kg IV qwk×3, Day 63): eight
- inhibition of growth of the xenografts [5]: significantly inhibited the growth
- complete tumor regressions (animals) [6]: 10
- animal deaths [6]: no animal deaths
- mean tumor weight [6]: 16 mg
- inhibition of growth of the xenografts [6]: significantly inhibited the growth
- % difference at nadir of response [6]: −99.8%
- mean tumor volume ([6]; 30 mg/kg IV qwk×3, Day 40): 0
- tumor-free animals at the end of the study [6]: 10
- tumor-free animals [6]: ten

SMILES: CC(=O)O[C@H]1C(=O)[C@@]2(C)[C@H]([C@H](OC(=O)c3ccccc3)[C@]3(O)C[C@H](OC(=O)[C@H](O)[C@@H](NC(=O)c4ccccc4)c4ccccc4)C(C)=C1C3(C)C)[C@]1(OC(C)=O)CO[C@@H]1C[C@@H]2O [paclitaxel]
- animal deaths / animals euthanized [5]: without animal deaths
- mean tumor weight ([5]; 30 mg/kg IV qwk×3, Day 24): 309 mg
- % difference at nadir of response ([5]; 30 mg/kg IV qwk×3, Day 31): −86.0%
- inhibition of growth of the xenografts [5]: significantly inhibited the growth
- TGI [7]: significant TGI
- survival extension [7]: significantly improved survival extension
- complete tumor regressions (animals) [6]: six
- animal deaths [6]: without animal deaths
- mean tumor weight [6]: 118 mg
- inhibition of growth of the xenografts [6]: significantly inhibited the growth
- % difference at nadir of response [6]: −97.4%
- tumor-free animals at the end of the study [6]: three
- tumor-free animals [6]: three
- Paclitaxel Concentration in tumor tissue [8]: BQL < 1 ng/g
- TGI [9]: significant TGI
- survival extension [9]: significantly improved survival extension

— US12390459B2, “Methods for solid tumor treatment” (CRITITECH, INC., priority 2016, dated 2025)
